Results published in patent US20240368194A1, “IRAK4 DEGRADATION AGENT, AND PREPARATION METHOD THEREFOR AND USE THEREOF” (SHANGHAI LEADINGTAC PHARMACEUTICAL CO. LTD., priority 2021, published 2024).

Legend:
IRAK4 kinase = IRAK4 kinase (Homo sapiens (Human), UniProt Q9NWZ3); test: IRAK4 kinase activity test (KinEASE-STK S1 HTRF kit); assay type: biochemical; details: 2.5 nM IRAK4 kinase, 7 μM ATP, 37° C. 120 min
Method: Then 2.5 nM 1RAK4 kinase (Carna), 1 μM biotinylated polypeptide substrate (Cisbio) and 7 μM adenosine triphosphate (Sigma-Aldrich) were sequentially added, and the mixtures were incubated at 37° C. for 120 min. Subsequently, an anti-phosphoserine/threonine antibody (Cisbio) conjugated with a europium element compound and conjugated modified XL665 streptavidin (Cisbio) were added to the reaction systems to stop the reactions. After 1 h of incubation at room temperature, the fluorescence intensity of each well was measured at the excitation wavelength of 337 nm and the emission wavelengths of 620 nm and 665 nm with a microplate reader EnVision (PerkinElmer) in the HTRF mode, and Ratio values were calculated using the formula Ratio=(665 nm/620 nm)×[…]. The inhibition rate of the compound at each concentration was calculated by comparing the fluorescence intensity ratio with that of the control group. Then a non-linear curve fitting of logarithmic concentration-inhibition rate was performed using GraphPad Prism 7, and the IC50 value of the compound was obtained.

[1] = molecular target: IRAK4 protein in THP-1 cells (Homo sapiens (Human), UniProt Q9NWZ3); test: Degradation of IRAK4 in THP-1 cells, human IRAK4 AlphaLISA assay; assay type: cell-based; details: 24 h incubation
Sequence of IRAK4 protein in THP-1 cells (Q9NWZ3 whole entry): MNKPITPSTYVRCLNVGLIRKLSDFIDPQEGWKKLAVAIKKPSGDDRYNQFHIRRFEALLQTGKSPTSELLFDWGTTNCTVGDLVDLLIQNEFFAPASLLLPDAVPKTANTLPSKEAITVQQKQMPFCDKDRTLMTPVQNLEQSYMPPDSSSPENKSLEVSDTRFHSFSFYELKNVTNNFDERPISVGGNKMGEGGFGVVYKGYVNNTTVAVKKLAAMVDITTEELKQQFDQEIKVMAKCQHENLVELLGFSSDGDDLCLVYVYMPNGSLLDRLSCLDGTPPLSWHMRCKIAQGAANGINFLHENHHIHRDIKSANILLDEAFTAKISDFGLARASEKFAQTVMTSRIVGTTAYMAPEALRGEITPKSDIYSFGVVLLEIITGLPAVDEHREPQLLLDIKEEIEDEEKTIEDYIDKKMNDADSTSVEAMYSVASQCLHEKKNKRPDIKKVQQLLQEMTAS
In short: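 THP-1 cells, after overnight plating, exposed 24 h at 37 °C to compound at 0.03-3000 nM final. Lysate IRAK4 read by Western blot and by AlphaLISA (acceptor beads 10 μg/mL, biotin anti-IRAK4 1 nM, donor beads 40 μg/mL, 23 °C). DC50 and Dmax from log concentration-response fit.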

Sequence of IRAK4 kinase (Q9NWZ3 whole entry): as above

SMILES | IC50 (IRAK4 kinase) | DC50 [1] | Dmax [1]
O=C1CCN(c2cc(C(=O)N3CCC(CCN4CCC(n5cc(NC(=O)c6cnn7ccc(N8CCOCC8)nc67)c(C(F)F)n5)CC4)CC3)ccc2F)C(=O)N1 [Example 37, N-(3-(difluoromethyl)-1-(1-(2-(1-(3-(2,4-dioxotetrahydropyrimidin-1(2H)-yl)-4-fluorobenzoyl)piperidin-4-yl)ethyl)piperidin-4-yl)-1H-pyrazol-4-yl)-5-morpholinopyrazolo[1,5-a]pyrimidine-3-carboxamide] | 13.1 nM | 42 nM | 81.1%
O=C1CCN(c2cc(C(=O)N3CCN(CCCCN4CCC(n5cc(NC(=O)c6cnn7ccc(N8C[C@H]9C[C@@H]8CO9)nc67)c(C(F)F)n5)CC4)CC3)ccc2Cl)C(=O)N1 [Example 40, 5-((1R,4R)-2-oxa-5-azabicyclo[2.2.1]heptan-5-yl)-N-(1-(1-(4-(4-(4-chloro-3-(2,4-dioxotetrahydropyrimidin-1(2H)-yl)benzoyl)piperazin-1-yl)-n-butyl)piperidin-4-yl)-3-(difluoromethyl)-1H-pyrazol-4-yl)pyrazolo[1,5-a]pyrimidine-3-carboxamide] | 34.5 nM | 32.8 nM | 79.2%
O=C1CCN(c2cc(C(=O)N3CCC4(CCC(CCN5CCC(n6cc(NC(=O)c7cnn8ccc(N9CCOCC9)nc78)c(C(F)F)n6)CC5)CC4)CC3)ccc2Cl)C(=O)N1 [Example 42, N-(1-(1-(2-(3-(4-chloro-3-(2,4-dioxotetrahydropyrimidin-1(2H)-yl)benzoyl)-3-azaspiro[5.5]undecan-9-yl)ethyl)piperidin-4-yl)-3-(difluoromethyl)-1H-pyrazol-4-yl)-5-morpholinopyrazolo[1,5-a]pyrimidine-3-carboxamide] | 18.6 nM | 3.66 nM | 91.7%
O=C1CCN(c2cc(C(=O)N3CCC4(CCC(CCN5CCC(n6cc(NC(=O)c7cnn8ccc(N9C[C@H]%10C[C@@H]9CO%10)nc78)c(C(F)F)n6)CC5)CC4)CC3)ccc2Cl)C(=O)N1 [Example 43, 5-((1R,4R)-2-oxa-5-azabicyclo[2.2.1]heptan-5-yl)-N-(1-(1-(2-(3-(4-chloro-3-(2,4-dioxotetrahydropyrimidin-1(2H)-yl)benzoyl)-3-azaspiro[5.5]undecan-9-yl)ethyl)piperidin-4-yl)-3-(difluoromethyl)-1H-pyrazol-4-yl)pyrazolo[1,5-a]pyrimidine-3-carboxamide] | 45 nM | 15.1 nM | 79.5%
Cc1ccc(C(=O)N2CCC3(CCC(CN4CCC(n5cc(NC(=O)c6cnn7ccc(N8C[C@H]9C[C@@H]8CO9)nc67)c(C(F)F)n5)CC4)CC3)CC2)cc1N1CCC(=O)NC1=O [Example 44, 5-((1R,4R)-2-oxa-5-azabicyclo[2.2.1]heptan-5-yl)-N-(3-(difluoromethyl)-1-(1-((3-(3-(2,4-dioxotetrahydropyrimidin-1(2H)-yl)-4-methylbenzoyl)-3-azaspiro[5.5]undecan-9-yl)methyl)piperidin-4-yl)-1H-pyrazol-4-yl)pyrazolo[1,5-a]pyrimidine-3-carboxamide] | 13.4 nM | 6.3 nM | 80.5%
Cc1ccc(C(=O)N2CCC3(CCC(CN4CCC(n5cc(NC(=O)c6cnn7ccc(N8CCC[C@H](N)C8)nc67)c(C(F)F)n5)CC4)CC3)CC2)cc1N1CCC(=O)NC1=O [Example 49, (S)-5-(3-aminopiperidin-1-yl)-N-(3-(difluoromethyl)-1-(1-((3-(3-(2,4-dioxotetrahydropyrimidin-1(2H)-yl)-4-methylbenzoyl)-3-azaspiro[5.5]undecan-9-yl)methyl)piperidin-4-yl)-1H-pyrazol-4-yl)pyrazolo[1,5-a]pyrimidine-3-carboxamide] | 7.05 nM | 3.22 nM | 97.1%
Cc1ccc(C(=O)N2CCC3(CCC(CN4CCC(n5cc(NC(=O)c6cnn7ccc(N8CC9(COC9)C8)nc67)c(C(F)F)n5)CC4)CC3)CC2)cc1N1CCC(=O)NC1=O [Example 50, N-(3-(difluoromethyl)-1-(1-((3-(3-(2,4-dioxotetrahydropyrimidin-1(2H)-yl)-4-methylbenzoyl)-3-azaspiro[5.5]undecan-9-yl)methyl)piperidin-4-yl)-1H-pyrazol-4-yl)-5-(2-oxa-6-azaspiro[3.3]heptan-6-yl)pyrazolo[1,5-a]pyrimidine-3-carboxamide] | 36.7 nM | 5.94 nM | 82.1%
O=C1CCN(c2cc(C(=O)N3CCC4(CCC(CN5CCC(n6cc(NC(=O)c7cnn8ccc(N9CCOCC9)nc78)c(C(F)F)n6)CC5)CC4)CC3)ccc2OC(F)(F)F)C(=O)N1 [Example 52, N-(3-(difluoromethyl)-1-(1-((3-(3-(2,4-dioxotetrahydropyrimidin-1(2H)-yl)-4-(trifluoromethoxy)benzoyl)-3-azaspiro[5.5]undecan-9-yl)methyl)piperidin-4-yl)-1H-pyrazol-4-yl)-5-morpholinopyrazolo[1,5-a]pyrimidine-3-carboxamide] | 23.8 nM | 18.4 nM | 95.4%
Cc1ccc(C(=O)N2CCC3(CCC(CN4CCC(n5cc(NC(=O)c6cnn7ccc(N8CCS(=O)(=O)CC8)nc67)c(C(F)F)n5)CC4)CC3)CC2)cc1N1CCC(=O)NC1=O [Example 55, N-(3-(difluoromethyl)-1-(1-((3-(3-(2,4-dioxotetrahydropyrimidin-1(2H)-yl)-4-methylbenzoyl)-3-azaspiro[5.5]undecan-9-yl)methyl)piperidin-4-yl)-1H-pyrazol-4-yl)-5-(1,1-dioxothiomorpholinyl)pyrazolo[1,5-a]pyrimidine-3-carboxamide] | 21.3 nM | 7.52 nM | 79.2%
Cc1ccc(C(=O)N2CCC3(CCC(CN4CCC(n5cc(NC(=O)c6cnn7ccc(N8CCC[C@H](O)C8)nc67)c(C(F)F)n5)CC4)CC3)CC2)cc1N1CCC(=O)NC1=O [Example 56, (S)-N-(3-(difluoromethyl)-1-(1-((3-(3-(2,4-dioxotetrahydropyrimidin-1(2H)-yl)-4-methylbenzoyl)-3-azaspiro[5.5]undecan-9-yl)methyl)piperidin-4-yl)-1H-pyrazol-4-yl)-5-(3-hydroxypiperidin-1-yl)pyrazolo[1,5-a]pyrimidine-3-carboxamide] | 3.87 nM | 0.41 nM | 96.4%

Further lines, results first:

IC50 (IRAK4 kinase) | DC50 [1] | Dmax [1] | SMILES
4.57 nM | 0.58 nM | 96.6% | O=C1CCN(c2cc(C(=O)N3CCC4(CCC(CN5CCC(n6cc(NC(=O)c7cnn8ccc(N9CCC[C@H](O)C9)nc78)c(C(F)F)n6)CC5)CC4)CC3)ccc2Cl)C(=O)N1 [Example 57, (S)-N-(1-(1-((3-(4-chloro-3-(2,4-dioxotetrahydropyrimidin-1(2H)-yl)benzoyl)-3-azaspiro[5.5]undecan-9-yl)methyl)piperidin-4-yl)-3-(difluoromethyl)-1H-pyrazol-4-yl)-5-(3-hydroxypiperidin-1-yl)pyrazolo[1,5-a]pyrimidine-3-carboxamide]
21.9 nM | 9.36 nM | 96.6% | COc1ccc(C(=O)N2CCC3(CCN(CCCN4CCC(n5cc(NC(=O)c6cnn7ccc(N8CCOCC8)nc67)c(C(F)F)n5)CC4)CC3)CC2)cc1N1CCC(=O)NC1=O [Example 60, N-(3-(difluoromethyl)-1-(1-(3-(9-(3-(2,4-dioxotetrahydropyrimidin-1(2H)-yl)-4-methoxybenzoyl)-3,9-diazaspiro[5.5]undecan-3-yl)propyl)piperidin-4-yl)-1H-pyrazol-4-yl)-5-morpholinopyrazolo[1,5-a]pyrimidine-3-carboxamide]
9.06 nM | 29 nM | 87.9% | COc1ccc(C(=O)N2CCC3(CCN(CCCCN4CCC(n5cc(NC(=O)c6cnn7ccc(N8CCOCC8)nc67)c(C(F)F)n5)CC4)CC3)CC2)cc1N1CCC(=O)NC1=O [Example 61, N-(3-(difluoromethyl)-1-(1-(4-(9-(3-(2,4-dioxotetrahydropyrimidin-1(2H)-yl)-4-methoxybenzoyl)-3,9-diazaspiro[5.5]undecan-3-yl)butyl)piperidin-4-yl)-1H-pyrazol-4-yl)-5-morpholinopyrazolo[1,5-a]pyrimidine-3-carboxamide]
36.2 nM | 9.18 nM | 79.3% | O=C1CCN(c2cc(C(=O)N3CCC4(CCC(CN5CCC(n6cc(NC(=O)c7cnn8ccc(N9CCS(=O)(=O)CC9)nc78)c(C(F)F)n6)CC5)CC4)CC3)ccc2Cl)C(=O)N1 [Example 63, N-(1-(1-((3-(4-chloro-3-(2,4-dioxotetrahydropyrimidin-1(2H)-yl)benzoyl)-3-azaspiro[5.5]undecan-9-yl)methyl)piperidin-4-yl)-3-(difluoromethyl)-1H-pyrazol-4-yl)-5-(1,1-dioxothiomorpholinyl)pyrazolo[1,5-a]pyrimidine-3-carboxamide]
5.93 nM | 7.47 nM | 96.1% | N[C@H]1CCCN(c2ccn3ncc(C(=O)Nc4cn(C5CCN(CC6CCC7(CC6)CCN(C(=O)c6ccc(Cl)c(N8CCC(=O)NC8=O)c6)CC7)CC5)nc4C(F)F)c3n2)C1 [Example 64, (S)-5-(3-aminopiperidin-1-yl)-N-(1-(1-((3-(4-chloro-3-(2,4-dioxotetrahydropyrimidin-1(2H)-yl)benzoyl)-3-azaspiro[5.5]undecan-9-yl)methyl)piperidin-4-yl)-3-(difluoromethyl)-1H-pyrazol-4-yl)pyrazolo[1,5-a]pyrimidine-3-carboxamide]
